According to article PMC4105567, “Aurora Kinases as Druggable Targets in Pediatric Leukemia: Heterogeneity in Target Modulation Activities and Cytotoxicity by Diverse Novel Therapeutic Agents” (PLoS ONE, 2014):
Read-outs that look alike come from different tables or passages of the source.

Columns and labels:
Type in all cases: cell-based, human
[1] = system: Patient #1 B-ALL primary leukemia cells; experiment: Cytotoxicity assay, primary sample Patient #1; details: four days in culture, Alamar blue assay or automated microscopy, one complete study
How it was run: (§1)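 Ficoll-isolated primary leukemic white cells (1×10^4 per well) in Opti-MEM exposed in triplicate to Aurora kinase inhibitors at 1×10^−6 to 10 µM or DMSO for 4 days. Survival measured by Alamar blue absorbance (570–620 nm) or bright-field direct cell counting, as percent of vehicle control.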

KOPN8 B-ALL cell line = experiment: Cytotoxicity assay, KOPN8; details: four days in culture, Alamar blue assay or automated microscopy, ± SD, three experiments
How it was run: (§2)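 1×10^4 cells/well, Opti-MEM + 10% FBS; inhibitor 1×10^−6–10 µM final vs DMSO, triplicate; 4 d, 37°C, 5% CO2. Viability by Alamar blue (A570–620) or Celigo direct cell count; % survival = treated/control ×100.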

[2] = system: Patient #3 AML/CML primary leukemia cells; experiment: Cytotoxicity assay, primary sample Patient #3; details: four days in culture, Alamar blue assay or automated microscopy, one complete study
How it was run: as §1

HL-60 APML cell line = experiment: Cytotoxicity assay, HL-60; details: APML cell line HL-60, four days in culture, Alamar blue assay or automated microscopy, ± SD, three experiments
How it was run: as §2

[3] = system: Patient #5 ALL/AML primary leukemia cells; experiment: Cytotoxicity assay, primary sample Patient #5; details: primary sample, four days in culture, Alamar blue assay or automated microscopy, one complete study, read-out: IC50, Patient #5 ALL/AML
How it was run: as §1

Nalm6 B-ALL cell line = experiment: Cytotoxicity assay, Nalm6; details: four days in culture, Alamar blue assay or automated microscopy, ± SD, three experiments
How it was run: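 Leukemia cells were exposed for 4 days to Aurora kinase inhibitors across final concentrations of 1×10^−6 to 10 µM. Survival, expressed as a percentage of vehicle-treated wells, came from Alamar blue absorbance or from imaging-based counts of viable cells.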

[4] = system: normal cells versus leukemia cell lines; experiment: Comparison of cytotoxicity IC50 values, normal cells versus leukemia cell lines; details: normal lymphocytes and bone marrow stroma versus leukemia cell lines of Table 2
Bone Marrow Stroma = experiment: Cytotoxicity assay, bone marrow stroma; details: bone marrow stroma (control for non-leukemia cytotoxicity), four days in culture, ± SD, three experiments
Molm13 AML cell line = experiment: Cytotoxicity assay, Molm13; details: four days in culture, Alamar blue assay or automated microscopy, ± SD, three experiments
How it was run: as §2

[5] = system: normal bone marrow derived CD34+ cells; experiment: Hematopoietic colony forming cell assay; details: myeloid and erythroid colonies from CD34+ cells; for colony formation at 0.1–10 µM: 14 days
Method: The hematopoietic colony forming cell assay was conducted based on a protocol outlined by StemCell Technologies (Vancouver, British Columbia, Canada). To begin, CD34^+ cells were isolated from residual normal bone marrow transplant specimens obtained after informed consent. Next, several concentrations of Aurora A Inhibitor I, Hesperadin, ZM447439 and AT9283 (0.01, 0.1, 1, 10 µM) and DMSO (Sigma-Aldrich, Oakville, Ontario) (10 µM) were added to separate tubes of MethoCult (StemCell Technologies), a methylcellulose matrix containing recombinant human cytokines stem cell factor (rh SCF), granulocyte macrophage colony-stimulating factor (rh GM-CSF), interleukin-3 (rh IL-3), granulocyte colony stimulating factor (rh G-CSF) and erythropoietin (rh EPO). Following the addition of CD34^+ cells at a final concentration of 5×10^3 cells per dish, the tubes were vortexed and allowed to stand for 5 minutes at room temperature. Next, the MethoCult mixtures were be dispensed into 35 mm dishes (Corning Incorporated, Corning, New York) through blunt end needles (StemCell Technologies) and 5 ml syringes (BD Biosciences, Mississauga, Ontario) at a volume of 1.1 ml per dish. The medium was evenly distributed across the surface of each dish by gentle tilting and rotation. The dishes were then placed in a 150 mm tissue culture dish (BD Biosciences) containing additional 35 mm dishes with sterile water to maintain humidity. The tissue culture dish was then placed at 37°C in a humidified incubator containing 5% CO2 for 14 days. The number of myeloid and erythroid derived colonies in both the treated and control dishes were counted and compared.

[6] = system: Patient #2 relapsed AML primary leukemia cells; experiment: Cytotoxicity assay, primary sample Patient #2; details: four days in culture, Alamar blue assay or automated microscopy, one complete study
How it was run: as §1

Row | SMILES | IC50 ([1]; Homo sapiens, 96 h) [nM] | IC50 (KOPN8 B-ALL cell line; Homo sapiens, KOPN-8, 96 h) [nM] | IC50 ([2]; Homo sapiens, 96 h) [nM] | IC50 (HL-60 APML cell line; Homo sapiens, 96 h) [nM] | IC50 ([3]; Homo sapiens, 96 h) [nM] | IC50 (Nalm6 B-ALL cell line; Homo sapiens, NALM-6, 96 h) [nM] | IC50 values for the normal cells compared with IC50 values for the leukemia cell lines (potential therapeutic window) [4] | IC50 (Bone Marrow Stroma; Homo sapiens, 96 h) [nM] | IC50 (Molm13 AML cell line; Homo sapiens, MOLM-13, 96 h) [nM] | colony formation at 0.1–10 µM [5] | IC50 ([6]; Homo sapiens, 96 h) [nM] | further results
1 | O=C(Nc1c[nH]nc1-c1nc2ccc(CN3CCOCC3)cc2[nH]1)NC1CC1 [AT9283] | 3 | 2 ± 1 | 1000 | 50 ± 20 | 0.3 | 6 ± 3 | higher than the IC50 values for the leukemia cell lines | 5000 ± 2000 | 5 ± 3 | completely inhibited the formation of both types of colonies | 80 | –
2 | CCN1CCN(C(=O)Cc2ccc(Nc3ncc(F)c(Nc4ccc(C(=O)Nc5ccccc5Cl)cc4)n3)cc2)CC1 [Aurora A Inhibitor I] | – | – | – | – | – | – | lower than the IC50 values for the normal cells, but not as pronounced | – | – | – | – | IC50 [1]: 800 nM; IC50 (KOPN8 B-ALL cell line): 800 ± 50 nM; IC50 [2]: 5000 nM; IC50 (HL-60 APML cell line): 2000 ± 1000 nM; IC50 [3]: 6 nM; IC50 (Nalm6 B-ALL cell line): 400 ± 80 nM; IC50 (Bone Marrow Stroma): 4000 ± 500 nM; IC50 (Molm13 AML cell line): 2000 ± 1000 nM; concentration up to which colony formation was not affected ([5]; 14 days in methylcellulose culture, tested 0.01, 0.1, 1, 10 µM): ≤ 100 nM; IC50 [6]: 1000 nM
3 | CCS(=O)(=O)Nc1ccc2c(c1)/C(=C(/Nc1ccc(CN3CCCCC3)cc1)c1ccccc1)C(=O)N2 [Hesperadin] | 0.04 | 0.1 | 3000 | 6 ± 3 | 0.01 | 0.004 | higher than the IC50 values for the leukemia cell lines | 2000 ± 900 | 0.3 | completely inhibited the formation of both types of colonies | 0.3 | –
